The values that follow come from ChEMBL document CHEMBL1828593 (Bioorg Med Chem, 2011).

Activity calls are given as the source filed them. The calls are words filed in the database; no cut-off is given here.

Experiment [1] deals with Acetylcholine-binding protein (Lymnaea stagnalis, UniProt P58154). The experiment in a line: Displacement of [3H]-epibatidine from histidine-tagged Lymnaea stagnalis AChBP expressed in Sf9 cells after 1.5 hrs by liquid scintillation counting.
In experiment [2] the target is T1, Neuronal acetylcholine receptor subunit alpha-7 (Homo sapiens, UniProt P36544). Briefly: Displacement of [3H]-MLA from human alpha7 nAChR expressed in human SH-SY5Y cells after 1.5 hrs by liquid scintillation counting. In kind it is cell-based.
T1 sequence (P36544 whole entry): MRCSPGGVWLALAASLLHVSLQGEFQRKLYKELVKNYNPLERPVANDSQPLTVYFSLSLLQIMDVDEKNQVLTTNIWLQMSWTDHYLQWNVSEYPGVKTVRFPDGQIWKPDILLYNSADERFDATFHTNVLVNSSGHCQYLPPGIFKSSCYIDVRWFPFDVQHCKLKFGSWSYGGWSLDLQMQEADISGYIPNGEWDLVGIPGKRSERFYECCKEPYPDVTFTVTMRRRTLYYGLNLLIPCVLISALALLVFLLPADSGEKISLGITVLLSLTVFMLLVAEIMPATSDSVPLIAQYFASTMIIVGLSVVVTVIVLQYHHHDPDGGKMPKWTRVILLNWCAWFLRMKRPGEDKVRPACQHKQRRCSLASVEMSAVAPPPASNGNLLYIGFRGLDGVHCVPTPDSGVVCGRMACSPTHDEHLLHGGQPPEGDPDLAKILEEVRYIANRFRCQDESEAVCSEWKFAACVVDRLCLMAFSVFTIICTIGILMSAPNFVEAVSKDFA
Experiment [3] has as its target T2, Neuronal acetylcholine receptor; alpha4/beta2 (Homo sapiens, UniProt P17787+P43681). The experiment in a line: Displacement of [3H]epibatidine from human alpha4beta2 nAChR expressed in human HEK293T cells after 1.5 hrs by liquid scintillation counting. Type of experiment: cell-based. The note with it: HEK-293T.
The target of experiment [4] is T1, Neuronal acetylcholine receptor subunit alpha-7. Briefly: Antagonist activity at human alpha7 nAChR expressed in Xenopus oocytes assessed as increase of acetylcholine-induced effect by electrophysiology assay. In kind it is functional, cell-based, Oocyte.
For experiment [5], the target named is T2, Neuronal acetylcholine receptor; alpha4/beta2. Briefly: Antagonist activity at human alpha4beta2 nAChR high affinity site expressed in Xenopus oocytes assessed as inhibition of acetylcholine-induced effect at 220 uM by electrophysiology assay. Type of experiment: functional, cell-based. The note with it: Oocyte.
Experiment [6] has the same target. Briefly: Antagonist activity at human alpha4beta2 nAChR low affinity site expressed in Xenopus oocytes assessed as inhibition of acetylcholine-induced effect at 220 uM by electrophysiology assay. Type of experiment: functional, cell-based. The note with it: Oocyte.
Experiment [7] has as its target T1, Neuronal acetylcholine receptor subunit alpha-7. Briefly: Antagonist activity at human alpha7 nAChR low affinity site expressed in Xenopus oocytes assessed as inhibition of acetylcholine-induced effect at 20 uM by electrophysiology assay. The note with it: Oocyte. Type of experiment: functional, cell-based.
Experiment [8] addresses T2, Neuronal acetylcholine receptor; alpha4/beta2. Briefly: Antagonist activity at human alpha4beta2 nAChR expressed in Xenopus oocytes assessed as increase of acetylcholine-induced effect by electrophysiology assay. Type of experiment: functional, cell-based, Oocyte.
Experiment [9] in a line: Displacement of [3H]epibatidine from histidine-tagged Aplysia californica AChBP expressed in Sf9 cells after 1.5 hrs by liquid scintillation counting.
The target in experiment [10] is T2, Neuronal acetylcholine receptor; alpha4/beta2. The experiment in a line: Antagonist activity at human alpha4beta2 nAChR high affinity site expressed in Xenopus oocytes assessed as inhibition of acetylcholine-induced effect at 55 uM by electrophysiology assay. In kind it is functional, cell-based. The note with it: Oocyte.
Experiment [11] has the same target. Briefly: Antagonist activity at human alpha4beta2 nAChR low affinity site expressed in Xenopus oocytes assessed as inhibition of acetylcholine-induced effect at 55 uM by electrophysiology assay. In kind it is functional, cell-based. The note with it: Oocyte.
The target is the same in experiment [12]. The experiment in a line: Competitive inhibition of human alpha4beta2 nAChR expressed in Xenopus oocytes by electrophysiology assay. Type of experiment: cell-based. The note with it: Oocyte.
Experiment [13] addresses T1, Neuronal acetylcholine receptor subunit alpha-7. The experiment in a line: Antagonist activity at human alpha7 nAChR low affinity site expressed in Xenopus oocytes assessed as inhibition of acetylcholine-induced effect at 10 uM by electrophysiology assay. Type of experiment: functional, cell-based. Particulars: Oocyte.
Experiment [14] shares this target. The experiment in a line: Competitive inhibition of human alpha7 nAChR expressed in Xenopus oocytes by electrophysiology assay. In kind it is cell-based. Particulars: Oocyte.
Experiment [15] has the same target. The experiment in a line: Antagonist activity at human alpha7 nAChR expressed in Xenopus oocytes assessed as acetylcholine-induced effect at 100 uM by electrophysiology assay. Type of experiment: functional, cell-based. Particulars: Oocyte.
The target in experiment [16] is T2, Neuronal acetylcholine receptor; alpha4/beta2. The experiment in a line: Antagonist activity at human alpha4beta2 nAChR expressed in Xenopus oocytes assessed as inhibition of acetylcholine-induced effect at 100 uM by electrophysiology assay. Type of experiment: functional, cell-based. Particulars: Oocyte.
Experiment [17] shares this target. The experiment in a line: Antagonist activity at human alpha4beta2 nAChR high affinity site expressed in Xenopus oocytes assessed as inhibition of acetylcholine-induced effect at 10 uM by electrophysiology assay. In kind it is functional, cell-based. Particulars: Oocyte.
For experiment [18] the target is unchanged. Briefly: Antagonist activity at human alpha4beta2 nAChR low affinity site expressed in Xenopus oocytes assessed as inhibition of acetylcholine-induced effect at 10 uM by electrophysiology assay. In kind it is functional, cell-based. Particulars: Oocyte.
For experiment [19], the target named is T1, Neuronal acetylcholine receptor subunit alpha-7. Briefly: Antagonist activity at human alpha7 nAChR low affinity site expressed in Xenopus oocytes assessed as inhibition of acetylcholine-induced effect at 7 uM by electrophysiology assay. In kind it is functional, cell-based. The note with it: Oocyte.

Sequence of Acetylcholine-binding protein (P58154 whole entry): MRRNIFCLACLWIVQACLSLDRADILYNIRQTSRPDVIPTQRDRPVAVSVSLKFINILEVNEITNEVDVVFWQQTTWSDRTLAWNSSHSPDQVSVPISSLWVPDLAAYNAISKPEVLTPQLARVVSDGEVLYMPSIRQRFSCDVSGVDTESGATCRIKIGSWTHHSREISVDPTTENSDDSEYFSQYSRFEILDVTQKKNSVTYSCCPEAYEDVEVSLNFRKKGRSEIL
T2 sequence (P17787 whole entry): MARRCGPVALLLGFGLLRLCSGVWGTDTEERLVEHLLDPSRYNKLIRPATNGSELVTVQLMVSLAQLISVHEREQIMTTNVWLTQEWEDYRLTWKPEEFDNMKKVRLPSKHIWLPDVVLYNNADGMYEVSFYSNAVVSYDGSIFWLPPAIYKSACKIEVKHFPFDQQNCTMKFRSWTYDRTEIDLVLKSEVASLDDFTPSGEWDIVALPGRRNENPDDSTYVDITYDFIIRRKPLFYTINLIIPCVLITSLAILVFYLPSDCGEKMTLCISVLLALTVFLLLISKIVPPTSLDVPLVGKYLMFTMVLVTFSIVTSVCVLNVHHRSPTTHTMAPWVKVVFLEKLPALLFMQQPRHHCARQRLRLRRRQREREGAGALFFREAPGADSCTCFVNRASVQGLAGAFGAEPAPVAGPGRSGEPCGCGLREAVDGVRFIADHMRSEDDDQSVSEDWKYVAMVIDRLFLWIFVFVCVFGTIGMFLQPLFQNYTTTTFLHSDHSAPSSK
T2 sequence (P43681 whole entry): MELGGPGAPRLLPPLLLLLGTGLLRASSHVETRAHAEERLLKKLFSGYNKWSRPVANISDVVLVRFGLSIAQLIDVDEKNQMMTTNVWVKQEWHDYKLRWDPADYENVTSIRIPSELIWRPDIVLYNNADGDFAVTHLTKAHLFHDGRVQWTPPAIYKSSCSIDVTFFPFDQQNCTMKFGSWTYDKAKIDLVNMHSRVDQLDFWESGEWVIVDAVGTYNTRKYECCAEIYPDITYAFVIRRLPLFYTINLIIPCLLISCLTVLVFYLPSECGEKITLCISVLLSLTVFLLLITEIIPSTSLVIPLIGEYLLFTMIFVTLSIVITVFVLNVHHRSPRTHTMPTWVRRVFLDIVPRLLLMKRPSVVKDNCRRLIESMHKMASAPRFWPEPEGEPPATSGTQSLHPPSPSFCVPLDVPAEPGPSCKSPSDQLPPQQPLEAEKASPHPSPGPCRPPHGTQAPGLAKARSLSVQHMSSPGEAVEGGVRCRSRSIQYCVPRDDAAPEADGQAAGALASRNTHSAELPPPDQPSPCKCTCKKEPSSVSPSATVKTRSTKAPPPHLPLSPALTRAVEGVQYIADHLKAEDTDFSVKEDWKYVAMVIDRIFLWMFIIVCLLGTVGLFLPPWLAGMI

`OC(COCc1ccc(Cl)cc1)CN1CCc2ccccc2C1` (stereo not drawn): the inhibitory constant (Ki) is 1.58 µM in experiment [1] and ≥ 31.6 µM in experiment [2]. For the same molecule, the outcome in experiment [3] was inactive.
Consider `C[N+]1(CCO)Cc2sc3ccc(Cl)cc3c2C1` (stereo not drawn), for which the inhibitory constant (Ki) was 1 µM in experiment [1] and 20 µM in experiment [2]. For the same molecule, in experiment [3], the result was inactive.
As to `Cc1ccc(C(OCC2CCC[N+](C)(C)C2)c2ccccc2)cc1` (stereo not drawn), the Ki is 0.501 µM in experiment [1] and 10 µM in [2]. In experiment [3], the result was inactive.
Turning to `NCc1ccsc1C(O)c1ccccc1` (stereo not drawn), the Ki was 25.1 µM in experiment [1] and ≥ 31.6 µM in experiment [2]. Moreover, the outcome in experiment [3] was inactive.
For `CC1CC[N+]2(C)CCc3c([nH]c4ccccc34)C2C1` (stereo not drawn) the same measures were 0.631 µM, ≥ 31.6 µM and “inactive”.
On to `CN1CCN(Cc2ccccc2Sc2ccccc2)CC1`, for which the Ki in experiment [1] was 1.58 µM; in experiment [2], 20 µM. Moreover, in [3], the outcome was inactive.
As for `c1ccc(Sc2ccccc2CN2CCCC2)cc1`, the Ki in experiment [1] was 0.2 µM; in experiment [2], 15.8 µM. Moreover, in experiment [3], the result was inactive.
Take `CC1NCCOC1c1ccc(Cl)cc1` (stereo not drawn): the Ki in experiment [1] was 12.6 µM; in [2] it was ≥ 31.6 µM. Further, in experiment [3], the result was inactive. In addition, the EC50 in experiment [4] is 10 µM. Moreover, the inhibition in [5] came to 19%; in experiment [6], 81%. In [7], the inhibition result is “Active”.
In the case of `C=CC1CN2CCC1CC2c1[nH]c2ccccc2c1CCO` (stereo not drawn), the figures for the Ki in experiment [1] and in experiment [2] were 0.398 µM and ≥ 31.6 µM, respectively. Besides, the outcome in experiment [3] was inactive.
For the molecule `c1ccc2c(c1)CC1CNC2c2ccccc21` (stereo not drawn), the Ki is 12.6 µM in experiment [1] and ≥ 31.6 µM in experiment [2]. Further, the outcome in [3] was inactive. Further, the EC50 in experiment [8] was 10 µM.
For `CC1CCN(CCc2cc3ccccc3[nH]2)CC1`, the results for the Ki in experiment [1] and in experiment [2] were 10 µM and ≥ 31.6 µM, respectively. In addition, the result in experiment [3] was inactive. In experiment [4], the EC50 was determined as 10 µM.
In the case of `CN1CC2Cc3ccccc3C1c1ccccc12` (stereo not drawn), the Ki in experiment [1] is 0.794 µM; in [2], ≥ 31.6 µM. Moreover, in experiment [3], the result was inactive. Further, in [8], the EC50 amounted to 10 µM.
As to `c1ccc2c(CN3CCCCC3)csc2c1`, the inhibition constant Ki in [1] is 1 µM; in [2], 15.8 µM. The result in [3] was inactive.
For the molecule `CSc1[nH]c2ccccc2c1CN1CCCCC1`, the Ki is 1.58 µM in experiment [1] and 3.98 µM in [2]. Moreover, the outcome in experiment [3] was inactive.
In the same order, the values of `ClC1(CNc2ccccc2)CCN(Cc2ccccc2)CC1` are 1.58 µM, ≥ 31.6 µM and “inactive”.
Turning to `c1ccc(C2CCN(CCc3cc4ccccc4[nH]3)CC2)cc1`, the Ki in experiment [1] is 1 µM; in experiment [2] it was ≥ 31.6 µM. This molecule also gave a pKi in experiment [9] of 5.3. For the same molecule, in experiment [3], the result was inactive. Further, the EC50 in [4] is 10 µM. Besides, the inhibition in [10] came to 25%; in [11] it was 75%. Moreover, the inhibition result in experiment [12] was “inactive”. The inhibition result in [13] and in [14] was “Active” each time.
On to `CC1(C)C=C(c2cc(Br)c(C3=CC(C)(C)NC(C)(C)C3)s2)CC(C)(C)N1`, for which the Ki in [1] was 0.398 µM; in experiment [2], ≥ 31.6 µM. In addition, the outcome in experiment [3] was inactive.
In the case of `O=C1CN(Cc2ccccc2)Cc2ccsc21`, the Ki in experiment [1] and in experiment [2] was ≥ 31.6 µM each time. Further, the outcome in experiment [3] was inactive. In addition, the inhibition result in [15] and in experiment [16] was “inactive” throughout.
With `CN1CCC(c2noc3ccccc23)CC1`, the Ki in experiment [1] is 12.6 µM; in experiment [2], ≥ 31.6 µM. Besides, in experiment [3], the result was inactive.
In the case of `CC(Cc1ccccc1)NC1CN2CCC1CC2` (stereo not drawn), the Ki in experiment [1] was 3.16 µM; in [2], ≥ 31.6 µM. The result in experiment [3] was inactive.
In the same order, the values of `CC(C)(C)C(N)/C=C/c1ccc(Cl)cc1Cl` (stereo not drawn) are 12.6 µM, ≥ 31.6 µM and “inactive”.
For `CC(=O)OCC[N+](C)(C)C` [ACETYLCHOLINE], in experiment [1], the inhibition constant Ki was 6.31 µM. The molecule further registered a negative logarithm of the Ki (pKi) in experiment [9] of 4.3.
As for `NCC(OCc1ccc(Cl)cc1Cl)c1ccccc1` (stereo not drawn), the Ki in experiment [1] is 5.01 µM; in [2], ≥ 31.6 µM. For the same molecule, the outcome in [3] was inactive. Also, the EC50 in [8] was 10 µM.
Consider `NCC(c1ccccc1)c1ccc(-c2ccccc2)cc1` (stereo not drawn), for which the Ki in experiment [1] is 12.6 µM; in [2], ≥ 31.6 µM. The result in experiment [3] was inactive. Moreover, in [8], the EC50 was 10 µM.
As to `c1ccc2c(c1)CCc1ccccc1C2NC12CC3CC(CC(C3)C1)C2`, the Ki in experiment [1] and in [2] was ≥ 31.6 µM throughout. Further, the result in [3] was inactive. Further, the inhibition entry in [15] and in experiment [16] was “inactive” in each case.
Take `Cc1ccccc1C(OCCN1CCCCC1)c1ccccc1` (stereo not drawn): the inhibition constant Ki was 0.316 µM in experiment [1] and 20 µM in experiment [2]. Further, the outcome in experiment [3] was inactive.
In the case of `CC1CC2(CCCCC2)NCc2ccccc21` (stereo not drawn), the Ki was 0.631 µM in experiment [1] and ≥ 31.6 µM in [2]. Further, the outcome in [3] was inactive.
As to `O=C1COc2ccccc2N1CCCCN1CCc2ccccc2C1`, the inhibitory constant (Ki) in [1] was 0.501 µM; in experiment [2], ≥ 31.6 µM. Besides, in experiment [3], the result was inactive.
Regarding `c1ccc(CN2CCN(CCCSc3cc4ccccc4[nH]3)CC2)cc1`, the Ki in experiment [1] is 2 µM; in experiment [2] it was ≥ 31.6 µM. In addition, the outcome in [3] was inactive.
`CC(C)(C)c1ccc(C(CN)c2ccccc2)cc1` (stereo not drawn): the Ki in [1] and in experiment [2] was ≥ 31.6 µM each time. In addition, the outcome in [3] was inactive.
For the molecule `CCN(CC)Cc1csc2ccc(Cl)cc12`, the Ki in experiment [1] was 3.98 µM; in experiment [2] it was ≥ 31.6 µM. In experiment [3], the result was inactive.
In the case of `c1ccc2c3c([nH]c2c1)C1CCCN1CC3` (stereo not drawn), the Ki was 1.26 µM in [1] and ≥ 31.6 µM in experiment [2]. The outcome in [3] was inactive.
Take `NCC(OCc1ccc(Cl)cc1)c1ccccc1` (stereo not drawn): the Ki in experiment [1] was 6.31 µM; in experiment [2], ≥ 31.6 µM. This molecule also yielded a negative-log Ki (pKi) in experiment [9] of 4.9. Further, the result in [3] was inactive. The EC50 in [8] was determined as 10 µM. Moreover, the values for the inhibition in [17] and in experiment [18] were 13% and 87%, respectively. Moreover, in experiment [12], the inhibition result is “inactive”. For the same molecule, the inhibition entry in experiment [19] and in experiment [14] was “Active” each time.
Turning to `c1ccc(C2CCN(CCc3nc4ccccc4[nH]3)CC2)cc1`, the Ki in [1] was 2.51 µM; in [2] it was ≥ 31.6 µM. Also, the result in [3] was inactive. In addition, the EC50 in experiment [4] was 10 µM.
On to `NCC(c1ccc(Cl)cc1)c1ccc(Sc2ccccc2)cc1` (stereo not drawn), for which the Ki in experiment [1] and in [2] was ≥ 31.6 µM throughout. Further, the outcome in experiment [3] was inactive. Besides, in experiment [4], the EC50 came to 10 µM. Further, in experiment [12], the inhibition result is “inactive”.
`Cc1ccc(C(c2ccc(C)cc2)N(C)C)cc1`: the Ki in experiment [1] and in experiment [2] was ≥ 31.6 µM each time. Also, the result in experiment [3] was inactive. For the same molecule, in experiment [4], the concentration giving a half-maximal response (EC50) was determined as 10 µM.
